Measured values taken from PubChem BioAssay (NCI).
“And” between values parts separate entries of the source, which are not always exact repeats. Equal values may be shown once.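 Cultured in 96-well plates, cells were exposed to test compound for 48 hours across five concentrations. Here, GI50 denotes the concentration required for 50% inhibition of growth. TGI is the concentration that stops growth completely.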

How the values were obtained:
Experiment in all cases: DTP human tumour cell line panel, 48 h
[1] = system: OVCAR-5 ovarian
[2] = system: A498 renal
[3] = system: HCT-116 colon
[4] = system: IGROV1 ovarian
[5] = system: HCT-15 colon
[6] = system: SF-295 CNS
[7] = system: LOX IMVI melanoma
[8] = system: RPMI-8226 leukemia
[9] = system: HOP-62 NSCLC
[10] = system: MALME-3M melanoma

| Structure (SMILES) | TGI [1] | TGI [2] [µM] | TGI [3] [µM] | TGI [4] | TGI [5] | TGI [6] [µM] | TGI [7] [µM] | TGI [8] [µM] | TGI [9] [µM] | TGI [10] [µM] | GI50 [1] [µM] | GI50 [5] [µM] | GI50 [10] [µM] | GI50 [3] [µM] | GI50 [4] [µM] | GI50 [6] [µM] | GI50 [7] [µM] | GI50 [8] [µM] | GI50 [9] [µM] |
| --- | --- | --- | --- | --- | --- | --- | --- | --- | --- | --- | --- | --- | --- | --- | --- | --- | --- | --- | --- |
| CC(NNC(=O)c1ccncc1)c1cccc(C(F)(F)F)c1 (configuration not stated) | > 100 µM | > 100 | > 100 | > 100 µM | > 100 µM | > 100 | > 100 | > 100 | > 100 | > 100 | – | – | – | – | – | – | – | – | – |
| Cc1ccc(NC(=O)C2C3CCC(O3)C2C(=O)O)cc1 (configuration not stated) | > 100 µM | > 75.7 | > 54.7 | > 100 µM | > 65.3 µM | > 100 | > 54.8 | > 68.8 | > 100 | > 100 | – | – | – | – | – | – | – | – | – |
| CCOC(=O)c1nc2cc(Cl)ccc2[nH]c1=O | > 100 µM | > 100 | > 100 | > 100 µM | > 100 µM | > 100 | > 100 | > 100 | > 100 | > 100 | – | – | – | – | – | – | – | – | – |
| COc1ccc(C2=NNC(=O)c3ccccc3N2c2nc(-c3cccs3)nc3cc(OC)c(OC)cc23)cc1 | > 100 µM | 10.5 | > 100 | > 100 µM | > 100 µM | 9.9 | – | > 100 | 17 | 6.92 | – | – | – | – | – | – | – | – | – |
| CCNC(=S)NNC(=O)c1ccccc1Nc1ccccc1C(=O)NNC(=S)NCC | > 100 µM | – | > 100 | > 100 µM | > 100 µM | > 100 | > 100 | > 100 | > 100 | > 100 | – | – | – | – | – | – | – | – | – |
| O=c1c2c3c(sc2nc2n1NC=NN2)CCCC3 | 35.9 µM | > 89.4 | 32.4 | > 56.6 µM | 37.5 µM | 30.2 | 4.88 | 50.6 | – | 55.3 | – | – | – | – | – | – | – | – | – |
| CC1OC(O[C@@H]2C=C3CC[C@@H]4[C@H](CC[C@]5(C)[C@@H](c6ccc(=O)oc6)CC[C@]45O)[C@@]3(C)CC2)C(O)C(OC2OC(CO)C(O)C(O)C2O)C1O (some centres not stated) | 0.039 µM and 0.0523 µM | 0.0825 | – | 0.0219 µM and 0.0562 µM | 0.116 µM and 0.0443 µM | – | – | – | 0.00151 | 0.0143 | 0.000256 | 0.000532 | 0.000628 | – | – | – | – | – | – |
| Nc1ccn(C2CCC(COP(=O)(O)OCC(O)COP(=O)(O)OCC3OC(n4cc(F)c(=O)[nH]c4=O)CC3O)O2)c(=O)n1 (configuration not stated) | > 100 µM | – | > 100 | > 100 µM | > 100 µM | > 100 | > 100 | > 100 | > 100 | > 100 | – | – | – | – | – | – | – | – | – |
| O=C1CN(c2cccc(C(F)(F)F)c2)C(=O)CN1CCN1CC(=O)N(c2cccc(C(F)(F)F)c2)CC1=O | > 100 µM | – | > 100 | > 100 µM | > 100 µM | > 100 | – | > 100 | > 100 | – | – | – | – | – | – | – | – | – | – |
| Cn1c(=O)c2[nH]c(SC/C(=N/O)c3ccc(Br)cc3)nc2n(C)c1=O | – | – | > 100 | 5.55 µM | – | 4.1 | > 100 | > 100 | 5.09 | 5.22 | – | – | 2.4 | 3.19 | 2.27 | 1.82 | 3.12 | 34.7 | 2.3 |
| O=C(NC1C/C(=N/O)c2c(Br)sc(Br)c21)C(F)(F)F (configuration not stated) | > 100 µM | 57.8 | 30.9 | > 100 µM | > 100 µM | > 100 | > 100 | – | – | > 100 | – | – | – | – | – | – | – | – | – |
| CSc1ncc2c(n1)-c1ccccc1OC2 | > 100 µM | 73.6 | > 100 | > 100 µM | > 100 µM | > 100 | > 100 | > 100 | – | – | – | – | – | – | – | – | – | – | – |
| O=C(O)c1nn(-c2ccccc2)nc1-c1nn(-c2ccccc2)nc1C(=O)O | > 100 µM | – | > 100 | > 100 µM | > 100 µM | > 100 | > 100 | > 100 | > 100 | > 100 | – | – | – | – | – | – | – | – | – |
| COc1ccc(Nc2nc(N)c(C(=O)c3ccc(Cl)cc3)s2)cc1 | 34.7 µM | > 100 | 6.64 | 17.7 µM | 5.49 µM | 15.1 | 19.9 | < 0.01 | 17 | – | – | – | – | – | – | – | – | – | – |
| COc1cc(S(=O)(=O)Nc2ccc(-c3csc(N4C(=O)CSC4c4ccccc4O)n3)cc2)ccc1Cl (configuration not stated) | > 100 µM | – | > 100 | > 100 µM | > 100 µM | > 100 | > 100 | > 100 | > 100 | > 100 | – | – | – | – | – | – | – | – | – |
| CC(=O)OCC1OC(N=[N+]=[N-])C(OC(C)=O)C(OC(C)=O)C1OC1OC(COC(C)=O)C(OC(C)=O)C(OC(C)=O)C1OC(C)=O (configuration not stated) | > 100 µM | > 100 | – | > 100 µM | > 100 µM | > 100 | > 100 | > 100 | – | > 100 | – | – | – | – | – | – | – | – | – |
| COC(=O)c1ccccc1C1CN=NC12Cc1ccc3c(c1C2=O)CCC3 (configuration not stated) | > 100 µM | > 100 | > 100 | > 100 µM | > 100 µM | > 100 | > 100 | – | > 100 | > 100 | – | – | – | – | – | – | – | – | – |
| CC(C)(C)OC(=O)N1N=CCC1c1ccccc1 (configuration not stated) | > 100 µM | > 100 | > 100 | > 100 µM | > 100 µM | > 100 | > 100 | > 100 | > 100 | – | – | – | – | – | – | – | – | – | – |
| COc1cccc(CCNc2c(C#N)c3n(c4ccccc4[n+]3C)c3ncccc23)c1 | 34 µM | 57 | 5.3 | – | 3.74 µM | 3.67 | 3.08 | 6.59 | 43.8 | 32.6 | – | – | – | – | – | – | – | – | – |
| CC#COS(=O)(=O)c1ccc(C)cc1 | > 100 µM | – | > 100 | > 100 µM | > 100 µM | > 100 | > 100 | 60.2 | > 100 | > 100 | – | – | – | – | – | – | – | – | – |
| O=C1C(=C([O-])c2ccccc2)C(=O)c2ccccc21.O=C1C(=C([O-])c2ccccc2)C(=O)c2ccccc21.[Ni+2] | > 100 µM | – | – | > 100 µM | > 100 µM | > 100 | > 100 | > 100 | – | > 100 | 13.4 | 47.2 | 75.4 | – | 48.2 | 41.4 | 34.6 | > 100 | – |
